Experimental data reported in the NIST ThermoML archive (doi:10.1016/j.jct.2019.02.028).

Test: xn = mol fraction of the nth substance listed
Details: Gas, Burnett expansion method

C=C(F)C(F)(F)F [2,3,3,3-tetrafluoro-1-propene] + FCF
Details | mass density [kg/m3]
353.42 K, 2273.3 kPa, x2 = 0.259 | 105.33
353.43 K, 588.71 kPa, x2 = 0.874 | 12.5
353.43 K, 1253 kPa, x2 = 0.874 | 28.21
353.47 K, 861.21 kPa, x2 = 0.874 | 18.78
358.31 K, 1928.5 kPa, x2 = 0.698 | 54.05
358.32 K, 1240.6 kPa, x2 = 0.449 | 40.46
358.33 K, 586.28 kPa, x2 = 0.449 | 17.94
358.33 K, 2665 kPa, x2 = 0.698 | 81.18
358.34 K, 639.13 kPa, x2 = 0.698 | 15.95
358.34 K, 1357.4 kPa, x2 = 0.698 | 35.99
358.34 K, 1994 kPa, x2 = 0.119 | 94.76
358.34 K, 2418.3 kPa, x2 = 0.449 | 91.37
358.34 K, 3167.9 kPa, x2 = 0.449 | 137.24
358.34 K, 3474 kPa, x2 = 0.874 | 95.77
358.35 K, 591.83 kPa, x2 = 0.259 | 20.68
358.35 K, 858.88 kPa, x2 = 0.449 | 26.94
358.35 K, 937.43 kPa, x2 = 0.698 | 23.96
358.35 K, 1463 kPa, x2 = 0.119 | 63.06
358.35 K, 1759.6 kPa, x2 = 0.449 | 60.82
358.35 K, 2335.1 kPa, x2 = 0.259 | 105.31
358.35 K, 2564.1 kPa, x2 = 0.874 | 63.62
358.35 K, 3529.2 kPa, x2 = 0.698 | 121.89
358.36 K, 1237.2 kPa, x2 = 0.259 | 46.66
358.36 K, 1730.8 kPa, x2 = 0.259 | 70.06
358.36 K, 1828.8 kPa, x2 = 0.874 | 42.36
358.36 K, 2579.2 kPa, x2 = 0.119 | 142.43
358.36 K, 2999.2 kPa, x2 = 0.259 | 158.78
358.36 K, 4405.8 kPa, x2 = 0.698 | 183.14
358.36 K, 4479.7 kPa, x2 = 0.874 | 144.13
358.37 K, 719.85 kPa, x2 = 0.119 | 27.94
358.37 K, 862.94 kPa, x2 = 0.259 | 31.07
358.37 K, 1037.7 kPa, x2 = 0.119 | 41.96
358.38 K, 1274.6 kPa, x2 = 0.874 | 28.2
358.38 K, 3076.3 kPa, x2 = 0.119 | 213.92
358.39 K, 597.87 kPa, x2 = 0.874 | 12.5
358.41 K, 875.21 kPa, x2 = 0.874 | 18.78
363.26 K, 1966.8 kPa, x2 = 0.698 | 54.03
363.26 K, 2727.3 kPa, x2 = 0.698 | 81.16
363.27 K, 1262.7 kPa, x2 = 0.449 | 40.45
363.28 K, 595.28 kPa, x2 = 0.449 | 17.93
363.28 K, 648.9 kPa, x2 = 0.698 | 15.95
363.28 K, 2476.7 kPa, x2 = 0.449 | 91.33
363.28 K, 3265.9 kPa, x2 = 0.449 | 137.17
363.28 K, 3632.6 kPa, x2 = 0.698 | 121.86
363.28 K, 4041.7 kPa, x2 = 0.449 | 205.81
363.29 K, 1381.4 kPa, x2 = 0.698 | 35.97
363.29 K, 1795.1 kPa, x2 = 0.449 | 60.79
363.29 K, 1863 kPa, x2 = 0.874 | 42.34
363.29 K, 2043.8 kPa, x2 = 0.119 | 94.71
363.29 K, 2396.3 kPa, x2 = 0.259 | 105.29
363.29 K, 3100.7 kPa, x2 = 0.259 | 158.62
363.29 K, 3726.8 kPa, x2 = 0.259 | 238.72
363.29 K, 4575.5 kPa, x2 = 0.698 | 183.09
363.3 K, 601.42 kPa, x2 = 0.259 | 20.68
363.3 K, 872.75 kPa, x2 = 0.449 | 26.93
363.3 K, 1296.1 kPa, x2 = 0.874 | 28.19
363.3 K, 1768.3 kPa, x2 = 0.259 | 70.06
363.3 K, 2619.4 kPa, x2 = 0.874 | 63.6
363.3 K, 2663.3 kPa, x2 = 0.119 | 142.34
363.3 K, 3565.6 kPa, x2 = 0.874 | 95.7
363.3 K, 4630.5 kPa, x2 = 0.874 | 143.96
363.31 K, 731.75 kPa, x2 = 0.119 | 27.93
363.31 K, 952.86 kPa, x2 = 0.698 | 23.95
363.31 K, 1056.3 kPa, x2 = 0.119 | 41.95
363.31 K, 1260.4 kPa, x2 = 0.259 | 46.66
363.31 K, 3222.3 kPa, x2 = 0.119 | 213.79
363.32 K, 877.52 kPa, x2 = 0.259 | 31.06
363.32 K, 1493.6 kPa, x2 = 0.119 | 63.03
363.33 K, 606.82 kPa, x2 = 0.874 | 12.5
363.33 K, 888.85 kPa, x2 = 0.874 | 18.77
368.2 K, 2004.8 kPa, x2 = 0.698 | 54.02
368.22 K, 604.3 kPa, x2 = 0.449 | 17.93
368.22 K, 658.7 kPa, x2 = 0.698 | 15.94
368.22 K, 1285 kPa, x2 = 0.449 | 40.44
368.22 K, 2534.6 kPa, x2 = 0.449 | 91.28
368.22 K, 2789.6 kPa, x2 = 0.698 | 81.13
368.22 K, 3362.6 kPa, x2 = 0.449 | 137.11
368.22 K, 4205.2 kPa, x2 = 0.449 | 205.77
368.23 K, 967.59 kPa, x2 = 0.698 | 23.94
368.23 K, 1830.4 kPa, x2 = 0.449 | 60.77
368.23 K, 3201.4 kPa, x2 = 0.259 | 158.47
368.23 K, 3655.1 kPa, x2 = 0.874 | 95.63
368.23 K, 3734.8 kPa, x2 = 0.698 | 121.83
368.23 K, 3898.2 kPa, x2 = 0.259 | 238.37
368.23 K, 4743.3 kPa, x2 = 0.698 | 183.03
368.24 K, 610.69 kPa, x2 = 0.259 | 20.68
368.24 K, 1317.5 kPa, x2 = 0.874 | 28.18
368.24 K, 1405.2 kPa, x2 = 0.698 | 35.96
368.24 K, 1523.3 kPa, x2 = 0.119 | 63.01
368.24 K, 1805.3 kPa, x2 = 0.259 | 70.05
368.24 K, 1897.2 kPa, x2 = 0.874 | 42.33
368.24 K, 2093.2 kPa, x2 = 0.119 | 94.66
368.24 K, 2457.3 kPa, x2 = 0.259 | 105.26
368.24 K, 2674.2 kPa, x2 = 0.874 | 63.58
368.24 K, 4778.9 kPa, x2 = 0.874 | 143.8
368.25 K, 743.56 kPa, x2 = 0.119 | 27.92
368.25 K, 886.98 kPa, x2 = 0.449 | 26.92
368.25 K, 1075 kPa, x2 = 0.119 | 41.94
368.25 K, 1283.3 kPa, x2 = 0.259 | 46.65
368.25 K, 2746.3 kPa, x2 = 0.119 | 142.24
368.25 K, 4383.2 kPa, x2 = 0.259 | 361.18
368.26 K, 891.98 kPa, x2 = 0.259 | 31.06
368.26 K, 3365.6 kPa, x2 = 0.119 | 213.65
368.27 K, 3774.3 kPa, x2 = 0.119 | 320.57
368.28 K, 615.74 kPa, x2 = 0.874 | 12.49
368.29 K, 902.66 kPa, x2 = 0.874 | 18.76
373.13 K, 2042.5 kPa, x2 = 0.698 | 54
373.14 K, 613.24 kPa, x2 = 0.449 | 17.92
373.15 K, 668.24 kPa, x2 = 0.698 | 15.94
373.15 K, 1428.2 kPa, x2 = 0.698 | 35.95
373.15 K, 2592.1 kPa, x2 = 0.449 | 91.24
373.15 K, 4365.9 kPa, x2 = 0.449 | 205.72
373.15 K, 4909.8 kPa, x2 = 0.698 | 182.98
373.16 K, 982.7 kPa, x2 = 0.698 | 23.94
373.16 K, 2850.9 kPa, x2 = 0.698 | 81.11
373.16 K, 3458.2 kPa, x2 = 0.449 | 137.04
373.16 K, 3835.9 kPa, x2 = 0.698 | 121.81
373.17 K, 1307 kPa, x2 = 0.449 | 40.43
373.17 K, 1552.9 kPa, x2 = 0.119 | 62.98
373.17 K, 1842 kPa, x2 = 0.259 | 70.05
373.17 K, 2141.9 kPa, x2 = 0.119 | 94.62
373.17 K, 3744.3 kPa, x2 = 0.874 | 95.56
